Usually EC50 stands for the concentration at which the effect is half-maximal.

For one experiment, the target named is T1, FicD^L258D (Homo sapiens, UniProt Q9BVA6, L258D).
T1 construct: soluble ER luminal domain (residues 105 to 458) of wild-type human FicD and three mutants; 6xHis-Sumo (N, cleaved yes); made in house; host or cells: Rosetta(DE3) E. coli
T1 sequence (Q9BVA6 105-458 L258D): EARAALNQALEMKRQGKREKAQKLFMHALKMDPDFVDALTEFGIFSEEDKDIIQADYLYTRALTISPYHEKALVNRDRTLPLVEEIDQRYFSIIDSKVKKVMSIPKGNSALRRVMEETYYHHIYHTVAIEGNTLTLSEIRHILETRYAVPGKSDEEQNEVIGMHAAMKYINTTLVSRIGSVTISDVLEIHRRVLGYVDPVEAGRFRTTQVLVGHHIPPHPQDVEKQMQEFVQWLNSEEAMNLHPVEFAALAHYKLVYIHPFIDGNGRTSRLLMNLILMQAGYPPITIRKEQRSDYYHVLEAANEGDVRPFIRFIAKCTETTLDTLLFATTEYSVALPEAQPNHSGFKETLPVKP
Briefly: Differential scanning fluorimetry (DSF) thermal shift with FicD^L258D. Type of experiment: binding. The conditions noted are these: for EC50: read-out: EC50 of DSF dose-response (ΔTm). (In DSF a fluorescence change marks the thermal transition of the protein.)

A further experiment deals with T2, FicD^WT (Homo sapiens, UniProt Q9BVA6).
T2 construct: soluble ER luminal domain (residues 105 to 458) of wild-type human FicD; 6xHis-Sumo (N, cleaved yes); made in house; host or cells: Rosetta(DE3) E. coli
T2 sequence (Q9BVA6 105-458): T1 sequence (Q9BVA6 105-458 L258D) with D154L
Briefly: MIDAS equilibrium dialysis/mass spectrometry metabolite screen, FicD^WT. The format is binding. The conditions noted are these: cutoff Q < 0.05 and |Log2 corrected fold change| > 2, metabolites 5 µM.

Structures are written as SMILES. Positions count from the first letter of the chain named.

Excerpt for FicD^WT: To identify small-molecule metabolite interactions with FicD, we applied an unbiased high-throughput screening approach known as MIDAS ([44]).

As for `Nc1ncnc2c1ncn2[C@@H]1O[C@H](COP(=O)(O)OP(=O)(O)O)[C@@H](O)[C@H]1O` [ADP], on FicD^L258D (FicD^L258D, 5 mM MgCl2), the “maximal Tm shift at saturating ligand concentration” value was ~ 10 °C and the EC50 came to 370 µM. The “binding to FicD^L258D by DSF” value on FicD^L258D (absence of MgCl2) is on record as “did not bind”. Also, the “binding to FicD^L258D by DSF” value on FicD^L258D (presence of 5 mM MgCl2) is listed as “binding”. The “MIDAS protein-metabolite interaction (enrichment/depletion)” value at FicD^WT is given as “significantly enriched”.

With `CC(C)=CCC/C(C)=C/CC/C(C)=C/COP(=O)(O)OP(=O)(O)O` [FPP, farnesyl-pyrophosphate], at FicD^L258D (FicD^L258D, 5 mM MgCl2), the “apparent binding (DSF EC50) fold tighter than that of ADP” value is recorded as 20 to 30 fold. Also, the entries for the “binding to FicD^L258D by DSF” value at FicD^L258D (absence of MgCl2) and on FicD^L258D (presence of 5 mM MgCl2) were “did not bind” and “bound”, respectively. In addition, the “MIDAS protein-metabolite interaction (enrichment/depletion)” value at FicD^WT is recorded as “significantly enriched”.

In the case of `CC(C)=CCC/C(C)=C/COP(=O)(O)OP(=O)(O)O` [GPP, geranyl-pyrophosphate], at FicD^L258D (FicD^L258D, 5 mM MgCl2), the “apparent binding (DSF EC50) fold tighter than that of ADP” value lay within 20 to 30 fold and the EC50 is 14.8 µM. Further, at FicD^WT, the “MIDAS protein-metabolite interaction (enrichment/depletion)” value is reported as “significantly enriched”.

Source of the values: publication PMC12974487, “Inhibition of FicD-mediated AMPylation and deAMPylation by isoprenoid diphosphates” (Proceedings of the National Academy of Sciences of the …, 2026).
